According to patent US6359130B1, “Bridged indenopyrrolocarbazoles” (Cephalon, Inc., priority 1998, dated 2002):

Assays:
[1] = target: T1, baculovirus-expressed human trkA cytoplasmic domain (Homo sapiens, UniProt P04629); assay: Inhibition of trkA tyrosine kinase activity (ELISA-based assay); assay type: biochemical; settings: for IC50: 40 μM ATP; for inhibition at 0.3 µM: read-out: trkA % inh @ 300 nM
T1 construct: baculovirus-expressed human trka cytoplasmic domain; made in house; host or cells: baculovirus expression system
T1 sequence (P04629 440-796 limits assumed): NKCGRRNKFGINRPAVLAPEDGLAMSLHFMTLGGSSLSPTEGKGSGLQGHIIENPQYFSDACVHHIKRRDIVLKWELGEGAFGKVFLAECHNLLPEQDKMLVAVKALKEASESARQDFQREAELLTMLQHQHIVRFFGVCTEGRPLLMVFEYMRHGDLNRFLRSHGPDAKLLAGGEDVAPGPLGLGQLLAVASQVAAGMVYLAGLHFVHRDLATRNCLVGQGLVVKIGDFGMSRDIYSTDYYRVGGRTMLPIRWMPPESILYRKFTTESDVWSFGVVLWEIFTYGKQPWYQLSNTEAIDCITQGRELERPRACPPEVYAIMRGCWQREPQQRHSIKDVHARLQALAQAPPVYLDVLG
Procedure: Selected bridged indenopyrrolocarbazole compounds were tested for their ability to inhibit the kinase activity of baculovirus-expressed human trka cytoplasmic domain using an ELISA-based assay as previously described (Angeles et al., Anal. Biochem. 236: 49-55, 1996). Briefly, the 96-well microtiter plate was coated with substrate solution (recombinant human phospholipase C-γl/glutathione S-transferase fusion protein (Rotin et al., EMBO J., 11: 559-567, 1992). Inhibition studies were performed in 100 μl assay mixtures containing 50 mM Hepes, pH 7.4, 40 μM ATP, 10 mM MnCl2, 0.1% BSA, 2% DMSO, and various concentrations of inhibitor. The reaction was initiated by addition of trkA kinase and allowed to proceed for 15 minutes at 37° C. An antibody to phosphotyrosine (UBI) was then added, followed by a secondary enzyme-conjugated antibody, alkaline phosphatase-labelled goat anti-mouse IgG (Bio-Rad). The activity of the bound enzyme was measured via an amplified detection system (Gibco-BRL). Inhibition data were analyzed using the sigmoidal dose-response (variable slope) equation in GraphPad Prism.

[2] = target: T2, trkA in NIH3T3 cells transfected with trkA (Homo sapiens, UniProt P04629); assay: Inhibition of NGF-stimulated trk phosphorylation in a whole cell preparation; assay type: cell-based; design: key to Inhibition Score at 100 nM: 0=no decrease; 1=1-25%; 2=26-49%; 3=50-75%; 4=76-100%; settings: NGF 10 ng/ml, percent decrease in trk protein band; for Inhibition Score at 100 nM: 100 nM compound; for Inhibition Score at 1000 nM: 1000 nM compound
T2 construct: expressed in transfected cells; host or cells: NIH3T3 cells
T2 sequence (P04629 33-796): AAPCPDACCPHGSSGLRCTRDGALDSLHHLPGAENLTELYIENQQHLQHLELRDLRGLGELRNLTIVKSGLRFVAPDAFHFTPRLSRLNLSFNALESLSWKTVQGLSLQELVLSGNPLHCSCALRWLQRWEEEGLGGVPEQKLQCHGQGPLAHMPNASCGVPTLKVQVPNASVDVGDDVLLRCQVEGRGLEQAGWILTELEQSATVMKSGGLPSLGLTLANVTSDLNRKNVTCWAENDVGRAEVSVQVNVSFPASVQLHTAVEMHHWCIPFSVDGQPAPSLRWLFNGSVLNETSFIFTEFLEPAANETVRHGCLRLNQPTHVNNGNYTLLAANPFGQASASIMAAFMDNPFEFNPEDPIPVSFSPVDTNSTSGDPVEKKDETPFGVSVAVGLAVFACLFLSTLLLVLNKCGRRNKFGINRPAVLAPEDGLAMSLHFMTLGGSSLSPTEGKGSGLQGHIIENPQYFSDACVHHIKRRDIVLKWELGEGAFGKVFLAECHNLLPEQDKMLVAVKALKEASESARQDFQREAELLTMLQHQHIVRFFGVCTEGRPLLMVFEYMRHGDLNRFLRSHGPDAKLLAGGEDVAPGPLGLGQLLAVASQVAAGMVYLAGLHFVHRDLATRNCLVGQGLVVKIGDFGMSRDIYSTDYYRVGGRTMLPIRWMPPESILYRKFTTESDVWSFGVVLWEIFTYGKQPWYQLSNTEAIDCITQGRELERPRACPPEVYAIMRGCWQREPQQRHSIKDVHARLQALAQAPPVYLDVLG
Procedure: NIH3T3 cells transfected with trkA were grown in 100 mm dishes. Subconfluent cells were serum-starved by replacing media with serum-free 0.05% BSA-DMEM containing compound (100 nM and 1 μM) or DMSO (added to controls) for one hour at 37° C. NGF (Harlan/Bioproducts for Science) was then added to the cells at a concentration of 10 ng/ml for 5 minutes. Cells were lysed in buffer containing detergent and protease inhibitors. Clarified cell lysates were normalized to protein using BCA method and immunoprecipitated with anti-trk antibody. Polyclonal anti-trk antibody was prepared against a peptide corresponding to the 14 amino acids at the carboxy terminus of trk (Martin-Zanca et al., Mol. Cell. Biol. 9: 24-33, 1989). The immune complexes were collected on Protein A Sepharose beads (Sigma Chem. Co., St. Lois, Mo.), separated by SDS polyacrylamide gel electrophoresis (SDS-PAGE), and transferred to a polyvinylidene difluoride (PVDF) membrane. The membrane was immunoblotted with anti-phosphotyrosine antibody (UBI), followed by incubation with horseradish peroxidase coupled goat anti-mouse IgG (Bio-Rad Laboratories, Hercules, Calif.). Phosphorylated proteins were visualized using ECL (Amersham Lite Science, Inc., Arlington Heights, Ill.). The area of the trk protein band was measured and compared to NGF-stimulated control. The inhibition scoring system used, based on percent decrease in trk protein band, was as follows: 0=no decrease; 1=1-25%; 2=26-49%; 3=50-75%; 4=76-100% Results are shown below in Table 3.

[3] = target: T3, VEGF receptor (human flk-1, KDR, VEGFR2) kinase domain (Homo sapiens, UniProt P35968); assay: Inhibition of VEGF receptor kinase activity (ELISA); assay type: biochemical; settings: 40 μM ATP; read-out: VEGFR kinase IC50
T3 construct: VEGF receptor (human flk-1, KDR, VEGFR2) kinase domain; made in house; host or cells: baculovirus expression system
T3 sequence (P35968 834-1162 limits assumed): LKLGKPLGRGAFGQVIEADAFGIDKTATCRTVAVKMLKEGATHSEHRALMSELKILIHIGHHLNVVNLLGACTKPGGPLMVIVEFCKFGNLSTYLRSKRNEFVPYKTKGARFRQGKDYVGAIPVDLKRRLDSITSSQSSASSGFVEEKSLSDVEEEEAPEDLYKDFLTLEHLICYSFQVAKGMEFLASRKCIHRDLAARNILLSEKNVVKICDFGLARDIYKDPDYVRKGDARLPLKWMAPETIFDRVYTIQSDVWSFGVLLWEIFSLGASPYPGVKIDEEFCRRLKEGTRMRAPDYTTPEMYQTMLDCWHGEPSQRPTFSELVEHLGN
Procedure: Bridged indenopyrrolocarbazole compounds were examined for their inhibitory effects on the kinase activity of baculovirus-expressed VEGF receptor (human flk-1, KDR, VEGFR2) kinase domain using the procedure described for the trkA kinase ELISA assay described above. The kinase reaction mixture, consisting of 50 mM Hepes, pH 7.4, 40 μM ATP, 10 mM MnCl2, 0.1% BSA, 2% DMSO, and various concentrations of inhibitor, was transferred to PLC-γ/GST-coated plates. VEGFR kinase was added and the reaction was allowed to proceed for 15 min. at 37° C. Detection of phosphorylated product was accomplished by addition of anti-phosphotyrosine antibody (UBI). A secondary enzyme-conjugated antibody was delivered to capture the antibody-phosphorylated PLC-γ/GST complex. The activity of the bound enzyme was measured via an amplified detection system (Gibco-BRL). Inhibition data were analyzed using the sigmoidal dose-response (variable slope) equation in GraphPad Prism.

[4] = system: protein kinase C (mixed isozymes of a, b, g); assay: Inhibition of protein kinase C activity (Millipore Multiscreen TCA in-plate assay); assay type: biochemical; settings: for PKC % Inh. @ 1 uM: values in parentheses; for IC50: read-out: PKC IC50
Procedure: Protein kinase C activity was assessed using the Millipore Multiscreen TCA “in-plate” assay as described in Pitt, A. M. and Lee, C. (J. Biomol. Screening, 1: 47-51, 1996). Assays were performed in 96-well Multiscreen-DP plates (Millipore). Each […] assay mixture contained 20 mM Hepes, pH 7.4, 10 mM MgCl2, 2.5 mM EGTA, 2.5 mM CaCl2, 80 mg/ml phosphatidyl serine, 3.2 mg/ml diolein, 200 mg/ml histone H-1(Fluka), 5 mM [γ-^32P]ATP, 1.5 ng protein kinase C (UBI; mixed isozymes of a, b, g), 0.1% BSA, 2% DMSO, and test bridged fused pyrrolocarbazole compound. The reaction was allowed to proceed for 10 min at 37° C., then quenched by adding ice cold 50% trichloroacetic acid. The plates were allowed to equilibrate for 30 min at 4° C., then washed with ice cold 25% TCA. Scintillation cocktail was added to the plates, and the radioactivity was determined using Wallac MicroBeta 1450 PLUS scintillation counter. The IC50 values were calculated by fitting the data to the sigmoidal dose-response (variable slope) equation in GraphPad Prism.

[5] = target: T4, PDGFβ receptor kinase domain (Homo sapiens, UniProt P09619); assay: Inhibition of PDGF receptor kinase activity (ELISA); assay type: biochemical; settings: for PDGFR % Inh. @ 1 μM / inhibition at 1 µM: values in parentheses; for inhibition at 1 µM: read-out: PDGFR % Inh. @ 1 μM; for IC50: 20 μM ATP, read-out: PDGFR IC50
T4 construct: baculovirus-expresses PDGFβ receptor kinase domain; made in house; host or cells: baculovirus expression system
T4 sequence (P09619 600-962 limits assumed): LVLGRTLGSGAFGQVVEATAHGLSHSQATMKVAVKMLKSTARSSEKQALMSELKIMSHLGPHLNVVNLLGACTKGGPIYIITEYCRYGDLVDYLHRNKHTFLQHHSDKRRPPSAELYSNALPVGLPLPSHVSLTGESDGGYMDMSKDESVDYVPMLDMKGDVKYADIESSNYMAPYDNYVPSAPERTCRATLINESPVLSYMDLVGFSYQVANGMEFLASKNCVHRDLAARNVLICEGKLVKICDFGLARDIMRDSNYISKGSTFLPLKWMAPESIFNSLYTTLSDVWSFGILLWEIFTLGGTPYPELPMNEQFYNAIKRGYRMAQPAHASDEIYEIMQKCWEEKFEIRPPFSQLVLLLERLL
Procedure: Bridged indenopyrrolocarbazole compounds were examined for their inhibitory effects on the kinase activity of baculovirus-expresses PDGFβ receptor kinase domain using the trkA kinase ELISA described above. Assays were performed in substrate (PLC-γ/GST)-coated 96-well microtiter plates. Each 100-μl reaction mixture contained 50 mM HEPES, pH 7.4, 20 μM ATP, 10 mM MnCl2, 0.1% BSA, 2% DMSO, and various concentrations of inhibitor. The reaction was initiated by addition of prephosphorylated recombinant human enzyme (10 ng/ml PDGFRβ) and allowed to proceed for 15 minutes at 37° C. The prephosphorylated enzyme was prepared prior to use by incubation of the kinase in buffer containing 20 μM ATP and 10 mM MnCl2 for 1 hour at 4° C. Detection of phosphorylated product was done by adding horseradish peroxidase (HRP)-conjugated anti-phosphotyrosine antibody (UBI). The HRP substrate solution containing 3, 3′-5, 5′-tetramethylbenzidine and hydrogen peroxide was later added and the plates were incubated for 10 minutes at room temperature. The reaction was quenched with acid and the resulting absorbance was read at 450 nm using a Microplate Bio-kinetics Reader (Bio-Tek Instrument EL 312e). Inhibition data were analyzed using the sigmoidal dose-response (variable slope) equation in GraphPad Prism.

Spinal Cord ChAT = assay: Enhancement of spinal cord ChAT activity in dissociated rat embryonic spinal cord culture; assay type: cell-based
Procedure: For example, In these assays, a compound was directly added to a dissociated spinal cord culture. Compounds which increased ChAT activity at least 120% of the control activity were considered active.
Methods: Fetal rat spinal cord cells were dissociated, and experiments were performed as described (Smith et al., J. Cell Biology 101:1608-1621(1985); Glicksman et al., J. Neurochem. 61:210-221(1993) ). Dissociated cells were prepared from spinal cords dissected from rats (embryonic day 14-15) by standard trypsin dissociation techniques (Smith et al., supra.). Cells were plated at 6×10^5 cells/cm^2 on poly-1-ornithine coated plastic tissue culture wells in serum-free N2 medium supplemented with 0.05% bovine serum albumin (BSA) (Bottenstein et al., PNAS USA 76:514-517 (1979) ). Cultures were incubated at 37° C. in a humidified atmosphere of 5% CO2/95% air for 48 hours. ChAT activity was measured after 2 days in vitro using a modification of the Fonnum procedure (Fonnum, J. Neurochem. 24:407-409 (1975) ) according to McManaman et al. and Glicksman et al. (McManaman et al., Developmental Biology 125:311-320(1988); Glicksman et al., J. Neurochem., supra.).

IC50 [1] [nM] | Inhibition Score at 100 nM [2] | Inhibition Score at 1000 nM [2] | IC50 [3] [nM] | PKC % Inh. @ 1 uM [4] | PDGFR % Inh. @ 1 μM [5] | IC50 [4] [nM] | SMILES | further results
16 | 0 | 2 (2=26-49%) | 184 | (28) % | (17) % | – | CC12CCCC(O1)n1c3ccccc3c3c4c(c5c(c31)C2c1ccccc1-5)C(=O)NC4 (single isomer, unassigned) [II-4b] | –
– | – | – | 601 | (5) % | (23) % | – | O=C1NC(=O)c2c1c1c3c4c2c2ccccc2n4C2CCC(O2)C3(O)c2ccccc2-1 (centres unmarked) [II-10] | trkA % inh @ 300 nM ([1]; 300 nM, values in parentheses): (17) %
– | – | – | 67 | – | – | – | O=C1NCc2c1c1c3c4c2c2ccccc2n4C2CCC(O2)C3c2ccccc2-1 (single isomer, unassigned) [II-1b] | –
76 | – | – | 17 | (18) % | (0) % | – | CC12CCCC(O1)n1c3ccccc3c3c4c(c5c(c31)C2c1ccccc1-5)C(=O)NC4 (single isomer, unassigned) [II-4a] | –
– | – | – | > 10000 | (−9) % | – | – | CCC12c3ccccc3-c3c4c(c5c6ccccc6n(c5c31)C1CCC2O1)CNC4=O (centres unmarked) [II-2] | inhibition at 0.3 µM ([1]; 300 nM, values in parentheses): 20%; inhibition at 1 µM [5]: 7%
11 | 3 (3=50-75%) | 4 (4=76-100%) | 87 | – | (36) % | 696 | CC12COCC(O1)n1c3ccccc3c3c4c(c5c(c31)C2c1ccccc1-5)C(=O)NC4 (single isomer, unassigned) [II-7a] | –
72 | – | – | 398 | (37) % | – | – | CC12CCC(O1)n1c3ccc(Br)cc3c3c4c(c5c(c31)C2c1ccccc1-5)C(=O)NC4 (centres unmarked) [II-5] | IC50 [5]: 1080 nM
– | – | – | 318 | (5) % | – | – | Nc1cccc(-c2ccc3c(c2)c2c4c(c5c6c2n3C2CCC(O2)C6c2ccccc2-5)C(=O)NC4)c1 (centres unmarked) [II-9] | inhibition at 0.3 µM ([1]; 300 nM, values in parentheses): 34%; inhibition at 1 µM [5]: 24%
254 | – | – | 26 | – | – | 1080 | O=C1NCc2c3c4c5c(c21)c1ccccc1n5C1CCC(O1)C4c1ccccc1-3 (centres unmarked) [II-8] | inhibition at 1 µM [5]: 15%
13 | 3 (3=50-75%) | 4 (4=76-100%) | 30 | – | – | 1300 | O=C1NCc2c1c1c3c4c2c2ccccc2n4C2CCC(O2)C3c2ccccc2-1 (centres unmarked) [II-1] | IC50 [5]: 1380 nM; Spinal Cord ChAT Activity at 30 nM (Spinal Cord ChAT; 30 nM, active if at least 120% of control): 114 % control; Spinal Cord ChAT Maximal Activity (Spinal Cord ChAT; concentration of maximal activity printed in cell (300 nM)): 139 @ 300 nM % control
9 | 1 (1=1-25%) | 4 (4=76-100%) | 71 | (23) % | (28) % | – | CC12CCC(O1)n1c3ccccc3c3c4c(c5c(c31)C2c1ccccc1-5)C(=O)NC4 (centres unmarked) [II-3] | –
– | – | – | 8 | – | – | 576 | COc1ccc2c(c1)-c1c3c(c4c5ccccc5n5c4c1C2C1CCC5O1)CNC3=O (centres unmarked) [II-13] | IC50 [5]: 1230 nM
17 | – | – | 20 | – | – | 518 | O=C1NCc2c1c1c3c4c2c2ccccc2n4C2CCC(CO)(O2)C3c2ccccc2-1 (centres unmarked) [II-12] | IC50 [5]: 125 nM
5 | 3 (3=50-75%) | 4 (4=76-100%) | 260 | – | – | 568 | CC12COCC(O1)n1c3ccccc3c3c4c(c5c(c31)C2c1ccccc1-5)C(=O)NC4 (centres unmarked) [II-7b] | inhibition at 1 µM [5]: 34%

SMILES | IC50 [1] [nM] | Inhibition Score at 100 nM [2] | Inhibition Score at 1000 nM [2] | IC50 [3] [nM] | PKC % Inh. @ 1 uM [4] | PDGFR % Inh. @ 1 μM [5] | IC50 [4] [nM] | further results
CCOC(=O)C12CCC(O1)n1c3ccccc3c3c4c(c5c(c31)C2c1ccccc1-5)C(=O)NC4 (centres unmarked) [II-11] | 121 | – | – | 205 | (19) % | (15) % | – | –
